Measured values as given in ChEMBL document CHEMBL5365543, “Benzamidine Conjugation Converts Expelled Potential Active Agents into Antifungals against Drug-Resistant Fungi” (J Med Chem, 2023).
In brackets after ≈: the same amount, converted by molar mass. Activity calls are given as the source filed them. The calls are words filed in the database; no cut-off is given here.

Tests used:
[1] = Selectivity ratio of IC50 for cytotoxicity against human HBE cells to MIC80 for antifungal activity against clinical isolate fluconazole-resistant Candida auris CBS12776; assay type: toxicity, cell-based
Candida albicans [2] = test: Inhibition of biofilm formation in fluconazole-resistant clinical isolate Candida albicans Gu5 at 2 microg/ml measured after 24 hrs by alamar blue staining based colorimetric analysis; assay type: functional, organism-based; details: dose 2.0 µg/ml
Cryptococcus neoformans = test: Antifungal activity against clinical isolate fluconazole-resistant Cryptococcus neoformans H99 assessed as inhibition of fungal growth measured after 24 hrs by CLSI based microtiter plate analysis; assay type: functional
Candida albicans [3] = test: Antifungal activity against wild-type Candida albicans SC5314 assessed as decrease in viable count measured after 24 hrs by colony-counting based time-killing kinetics assay; assay type: functional, organism-based; details: dose 2-4 µg/ml
[4] = Toxicity in BALB/c mouse infected with clinical isolate fluconazole-resistant Candida albicans Gu5 assessed as animal survival rate at 6 mg/kg, ip administered on day 1 and day 3 post fungal infection measured after 7 days; assay type: organism-based; details: in vivo, 168 h, time 7 day
Candida albicans [5] = test: Antifungal activity against wild-type Candida albicans SC5314 assessed as decrease in viable count at 2 to 4 microg/ml by colony-counting based time-killing kinetics assay; assay type: functional, organism-based; details: dose 2-4 µg/ml, time 24.0 hrs, TDE = time-dependent effect
[6] = Selectivity ratio of IC50 for cytotoxicity against human HBE cells to MIC80 for antifungal activity against clinical isolate fluconazole-resistant Candida albicans G5 harbouring MRR1 mutation overexpressing MdrL; assay type: toxicity, cell-based
Candida albicans [7] = test: Antifungal activity against clinical isolate fluconazole-resistant Candida albicans Gu5 harbouring TAC1 mutation overexpressing efflux pump CdrL and Cdr2 assessed as inhibition of fungal growth measured after 24 hrs by CLSI based microtiter plate analysis; assay type: functional
[8] = Cytotoxicity against human HBE cells assessed as inhibition of cell growth measured after 4 hrs by MTT assay; assay type: toxicity, cell-based
Candida albicans [9] = test: Antifungal activity against fluconazole-resistant clinical isolate Candida albicans Gu5 assessed as decrease in viable count at 2 to 4 microg/ml by colony-counting based time-killing kinetics assay; assay type: functional, organism-based; details: dose 2-4 µg/ml, time 24.0 hrs, TDE = time-dependent effect
[10] = Selectivity ratio of IC50 for cytotoxicity against human HBE cells to MIC80 for antifungal activity against clinical isolate fluconazole-resistant Candida albicans Gu5 harbouring TAC1 mutation overexpressing efflux pump CdrL and Cdr2; assay type: toxicity, cell-based
[Candida] auris [11] = Antifungal activity against clinical isolate fluconazole-resistant Candida auris CBS12774 assessed as decrease in viable count at 2 to 4 microg/ml by colony-counting based time-killing kinetics assay; assay type: functional, organism-based; details: Candidozyma auris, dose 2-4 µg/ml, time 24.0 hrs, TDE = time-dependent effect
[12] = Selectivity ratio of IC50 for cytotoxicity against human HBE cells to MIC80 for antifungal activity against clinical isolate fluconazole-resistant Candida albicans DSY296 harbouring TAC1 mutation overexpressing efflux pump CdrL and Cdr2; assay type: toxicity, cell-based
Candida albicans [13] = test: Antifungal activity against clinical isolate fluconazole-resistant Candida albicans DSY296 harbouring TAC1 mutation overexpressing efflux pump CdrL and Cdr2 assessed as inhibition of fungal growth measured after 24 hrs by CLSI based microtiter plate analysis; assay type: functional
Candida albicans [14] = test: Inhibition of biofilm formation in wild-type Candida albicans SC5314 at 8 microg/ml measured after 24 hrs by alamar blue staining based colorimetric analysis; assay type: functional
Candida albicans [15] = test: Antifungal activity against clinical isolate Candida albicans YEM15 overexpressing efflux pump CdrL and Cdr2 assessed as inhibition of fungal growth measured after 24 hrs by CLSI based microtiter plate analysis; assay type: functional
Candida albicans [16] = test: Antifungal activity against clinical isolate fluconazole-resistant Candida albicans CA632 assessed as inhibition of fungal growth measured after 24 hrs by CLSI based microtiter plate analysis; assay type: functional
Candida albicans [17] = test: Induction of drug resistance in wild-type Candida albicans SC5314 assessed as change in MIC at 0.5 times of MIC measured after 30 passages by broth microdilution method; assay type: functional
Candida albicans [18] = test: Antifungal activity against clinical isolate Candida albicans SCMRRIR34MPG2A harbouring MRR1 mutation overexpressing efflux pump MdrL assessed as inhibition of fungal growth measured after 24 hrs by CLSI based microtiter plate analysis; assay type: functional
[19] = Selectivity ratio of IC50 for cytotoxicity against human HBE cells to MIC80 for antifungal activity against clinical isolate Candida albicans SCUPC2R14MPG2A harbouring UPC2 mutation overexpressing […]; assay type: toxicity, cell-based
[20] = Selectivity ratio of IC50 for cytotoxicity against human HBE cells to MIC80 for antifungal activity against clinical isolate Candida albicans YEM13 overexpressing efflux pump MdrL; assay type: toxicity, cell-based
Candida albicans [21] = test: Antifungal activity against clinical isolate Candida albicans YEM13 overexpressing efflux pump MdrL assessed as inhibition of fungal growth measured after 24 hrs by CLSI based microtiter plate analysis; assay type: functional
[Candida] auris [22] = Antifungal activity against clinical isolate fluconazole-resistant Candida auris CBS12776 assessed as inhibition of fungal growth measured after 24 hrs by CLSI based microtiter plate analysis; assay type: functional; details: Candidozyma auris
[23] = Selectivity ratio of IC50 for cytotoxicity against human HBE cells to MIC80 for antifungal activity against clinical isolate fluconazole-resistant Candida glabrata CG2; assay type: toxicity, cell-based
Candida albicans [24] = test: Antifungal activity against wild-type Candida albicans SC5314 assessed as inhibition of fungal growth measured after 24 hrs by CLSI based microtiter plate analysis; assay type: functional
Candida albicans [25] = test: Antifungal activity against clinical isolate fluconazole-resistant Candida albicans Gu5 infected in BALB/c mouse assessed as reduction in kidney fungal infection at 6 mg/kg, ip administered on day 1 and day 3 post fungal infection measured after 7 days by periodic acid-schiff/hematoxylin and eosin staining based microscopic analysis; assay type: functional, organism-based; details: time 7.0 day
[26] = Selectivity ratio of IC50 for cytotoxicity against human HBE cells to MIC80 for antifungal activity against clinical isolate fluconazole-resistant Cryptococcus neoformans H99; assay type: toxicity, cell-based
[Candida] auris [27] = Antifungal activity against clinical isolate fluconazole-resistant Candida auris CBS12774 assessed as inhibition of fungal growth measured after 24 hrs by CLSI based microtiter plate analysis; assay type: functional; details: Candidozyma auris
Candida tropicalis = test: Antifungal activity against clinical isolate fluconazole-resistant Candida tropicalis CT10 assessed as inhibition of fungal growth measured after 24 hrs by CLSI based microtiter plate analysis; assay type: functional
Candida albicans [28] = test: Inhibition of biofilm formation in fluconazole-resistant clinical isolate Candida albicans Gu5 at 8 microg/ml measured after 24 hrs by alamar blue staining based colorimetric analysis; assay type: functional
[29] = Selectivity ratio of IC50 for cytotoxicity against human HBE cells to MIC80 for antifungal activity against clinical isolate fluconazole-resistant Candida albicans CA632; assay type: toxicity, cell-based
[30] = Selectivity ratio of IC50 for cytotoxicity against human HBE cells to MIC80 for antifungal activity against wild-type Candida albicans SC5314; assay type: toxicity, cell-based
[31] = Drug accumulation in wild-type Candida albicans SC5314 at 50 microg/ml incubated for 3 hrs by HPLC analysis; assay type: ADME; details: dose 50 µg/ml
[32] = Selectivity ratio of IC50 for cytotoxicity against human HBE cells to MIC80 for antifungal activity against clinical isolate Candida albicans SCMRRIR34MPG2A harbouring MRR1 mutation overexpressing efflux pump MdrL; assay type: toxicity, cell-based
Candida albicans [33] = test: Antifungal activity against clinical isolate fluconazole-resistant Candida albicans G5 harbouring MRR1 mutation overexpressing MdrL assessed as inhibition of fungal growth measured after 24 hrs by CLSI based microtiter plate analysis; assay type: functional

## C=C1C(=O)[C@@]2(C)CC[C@@H]3[C@@]1(CC[C@H]1[C@@]3(C)CCC[C@@]1(C)C(=O)OCCCOc1ccc(C(=N)N)cc1)C2
[1]
  selectivity ratio: 8
Candida albicans [2]
  inhibition: Active
Cryptococcus neoformans
  MIC80: 2 µg/mL (≈ 3.95 µM)
Candida albicans [3]
  Activity: Dose-Dependent Effect
[4]
  Survival: 40%
Candida albicans [5]
  Activity: Tde
[6]
  selectivity ratio: 8
Candida albicans [7]
  MIC80: 2 µg/mL (≈ 3.95 µM)
[8]
  IC50 at 4 h: 16.7 µg/mL (≈ 33 µM)
Candida albicans [9]
  Activity: Tde
[10]
  selectivity ratio: 8
[Candida] auris [11]
  Activity: Tde
[12]
  selectivity ratio: 8
Candida albicans [13]
  MIC80: 2 µg/mL (≈ 3.95 µM)
Candida albicans [14]
  inhibition at 8 µg/mL: ~80.2%
Candida albicans [15]
  MIC80: 1 µg/mL (≈ 1.97 µM)
Candida albicans [16]
  MIC80: 1 µg/mL (≈ 1.97 µM)
Candida albicans [17]
  Activity: Active
Candida albicans [18]
  MIC80: 2 µg/mL (≈ 3.95 µM)
[19]
  selectivity ratio: 8
[20]
  selectivity ratio: 8
Candida albicans [21]
  MIC80: 1 µg/mL (≈ 1.97 µM)
[Candida] auris [22]
  MIC80: 2 µg/mL (≈ 3.95 µM)
[23]
  selectivity ratio: 8
Candida albicans [24]
  MIC: inactive
Candida albicans [24]; Candida albicans, SC5314, 24 h, read-out: MIC80
  MIC80: 1 µg/mL (≈ 1.97 µM)
Candida albicans [25]
  Activity: Active
[26]
  selectivity ratio: 8
[Candida] auris [27]
  MIC80: 2 µg/mL (≈ 3.95 µM)
Candida tropicalis
  MIC80: 2 µg/mL (≈ 3.95 µM)
Candida albicans [28]
  inhibition at 8 µg/mL: 81.5%
[29]
  selectivity ratio: 8
[30]
  selectivity ratio: 8
[31]
  Drug uptake: Active
[32]
  selectivity ratio: 8
Candida albicans [33]
  MIC80: 1 µg/mL (≈ 1.97 µM)
